# Measured values: patent US8765728B2, “[1,5]-diazocin derivatives” (MelliTech, priority 2009, dated 2014)
# System: Min6 cell
# Assay: Insulin secretion response of beta cell line to formula I compounds (insulin ELISA)
# Format: cell-based
# Conditions: rank according to % increase versus control at most effective dose
# In short: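 After compound or vehicle exposure, Min6 cells were held 2 h in glucose-free medium and preincubated 30 min at 37° C in glucose-free KRBH (pH 7.4, 0.1% BSA). They were then incubated 30 min at 37° C in KRBH with varying glucose. Secreted insulin and acid-ethanol-extracted intracellular insulin were measured by ELISA.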
row,SMILES,Insulin secretion (Min6 cell) Range 1 to 5
1,"O=C1CCN(CC(O)c2ccc(Cl)cc2)c2ccc3c(c2CN1C1CC1)OCCO3 (stereo not shown) [Compound 97, 7-[2-(4-chlorophenyl)-2-hydroxyethyl]-11-cyclopropyl-2,3,8,9,11,12-hexahydro[1,4]dioxino[2,3-h][1,5]benzodiazocin-10(7H)-one]",2 (2: 110-120% of control)
2,"COc1ccc2c(c1)CN(C1CC1)C(=O)CCN2C(=O)c1ncoc1-c1ccccc1 [Compound 98, 5-cyclopropyl-8-methoxy-1-(5-phenyloxazole-4-carbonyl)-2,3,5,6-tetrahydrobenzo[b][1,5]diazocin-4(1H)-one]",2 (2: 110-120% of control)
3,"COc1ccc2c(c1)CN(C1CC1)C(=O)CCN2C(=O)c1cc(C)nn1C [Compound 99, 5-cyclopropyl-1-(1,3-dimethyl-1H-pyrazole-5-carbonyl)-8-methoxy-2,3,5,6-tetrahydrobenzo[b][1,5]diazocin-4(1H)-one]",1 (1: 90-110% of control)
4,"COc1ccc2c(c1)CN(C1CC1)C(=O)CCN2C(=O)c1c(C)noc1C [Compound 100, 5-cyclopropyl-1-(3,5-dimethylisoxazole-4-carbonyl)-8-methoxy-2,3,5,6-tetrahydrobenzo[b][1,5]diazocin-4(1H)-one]",1 (1: 90-110% of control)
5,"COc1ccc2c(c1)CN(C1CC1)C(=O)CCN2C(=O)c1cnccn1 [Compound 101, 5-cyclopropyl-8-methoxy-1-(pyrazine-2-carbonyl)-2,3,5,6-tetrahydrobenzo[b][1,5]diazocin-4(1H)-one]",2 (2: 110-120% of control)
6,"O=C(c1ncoc1-c1ccccc1)N1CCC(=O)N(C2CC2)Cc2cccnc21 [Compound 103, 5-cyclopropyl-1-(5-phenyloxazole-4-carbonyl)-2,3,5,6-tetrahydropyrido[2,3-b][1,5]diazocin-4(1H)-one]",2 (2: 110-120% of control)
7,"Cc1cc(C(=O)N2CCC(=O)N(C3CC3)Cc3cccnc32)no1 [Compound 104, 5-cyclopropyl-1-(5-methylisoxazole-3-carbonyl)-2,3,5,6-tetrahydropyrido[2,3-b][1,5]diazocin-4(1H)-one]",4 (4: 140-170% of control)
8,"Cc1cc(C(=O)N2CCC(=O)N(C3CC3)Cc3cccnc32)n(C)n1 [Compound 105, 5-cyclopropyl-1-(1,3-dimethyl-1H-pyrazole-5-carbonyl)-2,3,5,6-tetrahydropyrido[2,3-b][1,5]diazocin-4(1H)-one]",3 (3: 120-140% of control)
9,"Cc1noc(C)c1C(=O)N1CCC(=O)N(C2CC2)Cc2cccnc21 [Compound 106, 5-cyclopropyl-1-(3,5-dimethylisoxazole-4-carbonyl)-2,3,5,6-tetrahydropyrido[2,3-b][1,5]diazocin-4(1H)-one]",1 (1: 90-110% of control)
10,"O=C(c1cnccn1)N1CCC(=O)N(C2CC2)Cc2cccnc21 [Compound 107, 5-cyclopropyl-1-(pyrazine-2-carbonyl)-2,3,5,6-tetrahydropyrido[2,3-b][1,5]diazocin-4(1H)-one]",2 (2: 110-120% of control)
11,"O=C1CCNc2ccc(OC(F)F)cc2CN1C1CC1 [Compound 108, 5-cyclopropyl-8-(difluoromethoxy)-2,3,5,6-tetrahydrobenzo[b][1,5]diazocin-4(1H)-one]",2 (2: 110-120% of control)
12,"COc1ccc2c(c1)CN(C1CC1)C(=O)CCN2C[C@@H](O)COc1cccc(F)c1 [Compound 109, (R)-5-cyclopropyl-1-(3-(3-fluorophenoxy)-2-hydroxypropyl)-8-methoxy-2,3,5,6-tetrahydrobenzo[b][1,5]diazocin-4(1H)-one]",3 (3: 120-140% of control)
13,"COc1ccc2c(c1)CN(C1CC1)C(=O)CCN2C[C@H](O)COc1cccc(F)c1 [Compound 110, (S)-5-cyclopropyl-1-(3-(3-fluorophenoxy)-2-hydroxypropyl)-8-methoxy-2,3,5,6-tetrahydrobenzo[b][1,5]diazocin-4(1H)-one]",1 (1: 90-110% of control)
14,"O=C(c1ccno1)N1CCC(=O)N(C2CC2)Cc2cc(OC(F)F)ccc21 [Compound 111, 5-cyclopropyl-8-(difluoromethoxy)-1-(isoxazole-5-carbonyl)-2,3,5,6-tetrahydrobenzo[b][1,5]diazocin-4(1H)-one]",1 (1: 90-110% of control)
15,"O=C(c1ncoc1-c1ccccc1)N1CCC(=O)N(C2CC2)Cc2cc(OC(F)F)ccc21 [Compound 112, 5-cyclopropyl-8-(difluoromethoxy)-1-(5-phenyloxazole-4-carbonyl)-2,3,5,6-tetrahydrobenzo[b][1,5]diazocin-4(1H)-one]",1 (1: 90-110% of control)
16,"Cc1cc(C(=O)N2CCC(=O)N(C3CC3)Cc3cc(OC(F)F)ccc32)no1 [Compound 113, 5-cyclopropyl-8-(difluoromethoxy)-1-(5-methylisoxazole-3-carbonyl)-2,3,5,6-tetrahydrobenzo[b][1,5]diazocin-4(1H)-one]",1 (1: 90-110% of control)

row,SMILES,Insulin secretion (Min6 cell) Range 1 to 5
1,"Cc1cc(C(=O)N2CCC(=O)N(C3CC3)Cc3cc(OC(F)F)ccc32)n(C)n1 [Compound 114, 5-cyclopropyl-8-(difluoromethoxy)-1-(1,3-dimethyl-1H-pyrazole-5-carbonyl)-2,3,5,6-tetrahydrobenzo[b][1,5]diazocin-4(1H)-one]",1 (1: 90-110% of control)
2,"Cc1noc(C)c1C(=O)N1CCC(=O)N(C2CC2)Cc2cc(OC(F)F)ccc21 [Compound 115, 5-cyclopropyl-8-(difluoromethoxy)-1-(3,5-dimethylisoxazole-4-carbonyl)-2,3,5,6-tetrahydrobenzo[b][1,5]diazocin-4(1H)-one]",1 (1: 90-110% of control)
3,"O=C(c1cnccn1)N1CCC(=O)N(C2CC2)Cc2cc(OC(F)F)ccc21 [Compound 116, 5-cyclopropyl-8-(difluoromethoxy)-1-(pyrazine-2-carbonyl)-2,3,5,6-tetrahydrobenzo[b][1,5]diazocin-4(1H)-one]",2 (2: 110-120% of control)
4,"O=C1CCN(C[C@@H](O)COc2cccc(F)c2)c2ccc(OC(F)F)cc2CN1C1CC1 [Compound 117, (R)-5-cyclopropyl-8-(difluoromethoxy)-1-(3-(3-fluorophenoxy)-2-hydroxypropyl)-2,3,5,6-tetrahydrobenzo[b][1,5]diazocin-4(1H)-one]",1 (1: 90-110% of control)
5,"O=C1CCN(C[C@H](O)COc2cccc(F)c2)c2ccc(OC(F)F)cc2CN1C1CC1 [Compound 118, (S)-5-cyclopropyl-8-(difluoromethoxy)-1-(3-(3-fluorophenoxy)-2-hydroxypropyl)-2,3,5,6-tetrahydrobenzo[b][1,5]diazocin-4(1H)-one]",2 (2: 110-120% of control)
6,"O=C1CCN(C[C@@H](O)COc2ccc(Cl)cc2)c2ccc(OC(F)F)cc2CN1C1CC1 [Compound 119, (R)-1-(3-(4-chlorophenoxy)-2-hydroxypropyl)-5-cyclopropyl-8-(difluoromethoxy)-2,3,5,6-tetrahydrobenzo[b][1,5]diazocin-4(1H)-one]",3 (3: 120-140% of control)
7,"O=C1CCN(C[C@H](O)COc2ccc(Cl)cc2)c2ccc(OC(F)F)cc2CN1C1CC1 [Compound 120, (S)-1-(3-(4-chlorophenoxy)-2-hydroxypropyl)-5-cyclopropyl-8-(difluoromethoxy)-2,3,5,6-tetrahydrobenzo[b][1,5]diazocin-4(1H)-one]",1 (1: 90-110% of control)
8,"COCC(=O)N1CCC(=O)N(C2CC2)Cc2cc(F)ccc21 [Compound 121, 5-cyclopropyl-8-fluoro-1-(2-methoxyacetyl)-2,3,5,6-tetrahydrobenzo[b][1,5]diazocin-4(1H)-one]",1 (1: 90-110% of control)
9,"O=C(COc1ccccc1)N1CCC(=O)N(C2CC2)Cc2cc(F)ccc21 [Compound 122, 5-cyclopropyl-8-fluoro-1-(2-phenoxyacetyl)-2,3,5,6-tetrahydrobenzo[b][1,5]diazocin-4(1H)-one]",1 (1: 90-110% of control)
10,"O=C(c1ccco1)N1CCC(=O)N(C2CC2)Cc2cc(F)ccc21 [Compound 123, 5-cyclopropyl-8-fluoro-1-(furan-2-carbonyl)-2,3,5,6-tetrahydrobenzo[b][1,5]diazocin-4(1H)-one]",1 (1: 90-110% of control)
11,"O=C1CCNc2ccc(OC(F)F)cc2CN1C1CC1 [Compound 124, 5-cyclopropyl-8-(difluoromethoxy)-2,3,5,6-tetrahydrobenzo[b][1,5]diazocin-4(1H)-one]",1 (1: 90-110% of control)
12,"Cn1cnc(S(=O)(=O)N2CCC(=O)N(C3CC3)Cc3c2ccc2c3OCCO2)c1 [Compound 125, 11-cyclopropyl-7-((1-methyl-1H-imidazol-4-yl)sulfonyl)-2,3,8,9,11,12-hexahydro-[1,4]dioxino[2′,3′:3,4]benzo[1,2-b][1,5]diazocin-10(7H)-one]",1 (1: 90-110% of control)
13,"O=C1CCN(C[C@@H](O)COc2ccc(Cl)cc2)c2ccc3c(c2CN1C1CC1)OCCO3 [Compound 126, (R)-7-(3-(4-chlorophenoxy)-2-hydroxypropyl)-11-cyclopropyl-2,3,8,9,11,12-hexahydro-[1,4]dioxino[2′,3′:3,4]benzo[1,2-b][1,5]diazocin-10(7H)-one]",2 (2: 110-120% of control)
14,"COc1ccc2c(c1OC(F)F)CN(C1CC1)C(=O)CCN2 [Compound 127, 5-cyclopropyl-7-(difluoromethoxy)-8-methoxy-2,3,5,6-tetrahydrobenzo[b][1,5]diazocin-4(1H)-one]",1 (1: 90-110% of control)
15,"O=C(c1cnccn1)N1CCC(=O)N(C2CC2)Cc2c1ccc1c2OCCO1 [Compound 128, 11-cyclopropyl-7-(pyrazine-2-carbonyl)-2,3,8,9,11,12-hexahydro-[1,4]dioxino[2′,3′:3,4]benzo[1,2-b][1,5]diazocin-10(7H)-one]",1 (1: 90-110% of control)
